In one assay the test system is Kuramochi cells. The assay can be described thus: BrdU cell proliferation assay. The following applies: 96 h, developed on day 4, read-out: BrdU - KURAMOCHI.1: IC50. The format is cell-based. As for the experimental part: A BrdU assay was used as a measure of proliferation based on the DNA replication process of proliferating cells. BrdU, a pyrimidine analog, is added to the cell culture and incorporated into the DNA of proliferating cells. The presence of the BrdU analog was then measured through a colorimetric ELISA. After fixation and permeabilization of cells, peroxidase-conjugated antibody recognizing BrdU is added and allowed to incubate, followed by thorough washing to remove unbound antibody. In order to quantify the amount of bound antibody, peroxidase substrate is added and produces a color that can be measured at 450 nm.
On day −1, Kuramochi cells (Sekisui XenoTech JCRB0098) were seeded at 2,000 cells/well in columns 2-12 of a 96 well plate (Corning, CLS3596) in 150 uL media and allowed to adhere overnight at 37 degree with 5% CO2. In order to assess specificity of the compounds, Kuramochi RB^KO cells were also plated and treated, as RB^KO cells were not expected to show a proliferative response to CCNE/CDK specific inhibitors.
On day 0, the source plate was prepared by adding 10 mM compounds and performing 3-fold serial dilutions for a 4-point dose response of each compound. Using a multichannel pipette, 2 μL of the contents of the source plate were stamped into an intermediate plate with 500 μL of RPMI 1640 Media, GlutaMAX Supplement (Life Technologies. 61870127) in each well of a Nunc 96 DeepWell™ plate, non-treated 96 DeepWell plate, 2 mL/well, sterile, natural. 60/cs (Sigma Z717274) and mixed thoroughly. 50 uL from row A of this intermediate plate were added to rows A-H of one plate of previously seeded Kuramochi cells, and each subsequent row of the intermediate plate was added to a full plate of cells.
On day 4, the plates were developed using the BrdU ELISA Cell Proliferation Assay according to manufacturer's instructions (Roche, 11647229001). Briefly, BrdU was diluted 1:100 in Gibco®. Opti-MEM® and 20 μL/well was added, shaken for 10 minutes at 350 rpm, and then returned to the incubator for 1 hour. Following incubation, the medium was discarded, and the cells were fixed by adding 200 μL of Fix/Denature solution. The anti-BrdU peroxidase antibody was diluted 1:1000 in OptiMEM, added at 100 μL/well, and incubated while shaking (350 rpm) for one hour. Three washes with PBS were performed to remove any unbound antibody, followed by the addition of 100 μL of substrate solution to each well. […] was then added to halt the reaction, and plates were read out using an Envision spectrophotometer (Perkin Elmer) set to read 450 nm absorbance. Background absorbance values from empty wells were subtracted from all samples and then normalized to DMSO treated wells.

In assay [1] the target is T1, CDK2/Cyclin E1 (Homo sapiens (Human), UniProt P24941). The experiment in a line: Caliper LabChip EZ Reader mobility shift assay. The format is biochemical. The following applies: 2.5 nM CDK2/Cyclin E1 (14-475), 100 μM ATP, 1.5 μM fluorescent peptide; read-out: Caliper Assay (CDK2/CCNE1): IC50. As to the method:
Inhibition of CDK2/Cyclin E1 activity in the presence of compounds of the present disclosure was evaluated using a Caliper LabChip® EZ Reader mobility shift assay. In the assay, activated CDK2/Cyclin E1 catalyzes the phosphorylation of a fluorescently tagged peptide 5-FAM-QSPKKG-CONH2 (PerkinElmer, FL Peptide 18) which induces a difference in capillary electrophoresis mobility. The peptide substrate and product were measured, and the conversion ratio was used to determine the inhibition (as % activity and IC50 values) of CDK2/Cyclin E1. Reactions contained 50 mM HEPES pH 7.5, 10 mM MgCl2, 1 mM EDTA, 2 mM DTT, 0.01% Brij35, 0.5 mg/mL BSA, 0.1% DMSO, 2.5 nM CDK2/Cyclin E1 (14-475), 100 μM ATP, and 1.5 μM fluorescent peptide substrate.
Dose titrations of inhibitors in 100% DMSO were combined with 3.25 nM CDK2/Cyclin E1 (14-475) and 130 μM of ATP in reaction buffer. The mixtures were incubated for 30 minutes before the addition of fluorescent peptide substrate to initiate the kinase reaction. The final conditions were 2.5 nM CDK2/Cyclin E1 (14-475), 100 μM ATP, and 1.5 μM fluorescent peptide. The reactions were stopped after 100 minutes with the addition of EDTA (6 mM final EDTA concentration). The stopped reactions were analyzed on a Caliper LabChip® EZ Reader II. The conversion ratios were normalized to yield % activity, plotted against compound concentration, and fit to a four-parameter equation to determine the IC50 for each compound.

Assay [2] relates to Kuramochi cells labeled with mApple-H2B. The assay can be described thus: IncuCyte cell proliferation assay. The format is cell-based. The following applies: Kuramochi RB-WT, cell count 0 to 72 hours; method calls it GI50. As for the experimental part:
IncuCyte® assay was used to measure the effect of disclosed compounds on cell proliferation. Fluorescent microscopy images of cells were taken immediately after compound treatment and 72 hours later. Image analysis software was used to obtain cell counts as a function of compound concentration. Kuramochi cells labeled with mApple-H2B were seeded on 384-well assay-ready plates. Plates were placed in an IncuCyte® (Sartorius) and scanned at 0 and 72 hours. IncuCyte® software was used to count the number of fluorescent nuclei in each well. The fold change in cell count from 0 to 72 hours in wells treated with increasing compounds concentrations (10 pts, 1/2 log dilution, 20 μM top concentration) was normalized to DMSO control wells. The normalized cell counts were fit with dose response curves and a GI50 was calculated.

Assay [3] addresses T1, CDK2/Cyclin E1. The assay can be described thus: ADP-Glo Luminescent Kinase Assay, ADPGLO (CDK2/E1-37C). The format is biochemical. As to conditions: 0.18 nM CDK2/Cyclin E1, 100 μM ATP, 1.5 μM Histone H1, 37° C.; read-out: Pharmaron ADPGLO (CDK2/E1-37C): IC50. As for the experimental part:
Inhibition of CDK2/Cyclin E1 activity by the presence of small molecules was evaluated using ADP-Glo Luminescent Kinase Assay (Promega). Activated CDK2/Cyclin E1 was incubated with its substrate Histone H1 (SignalChem H10-54N) in the kinase reaction buffer (100 μM ATP, 50 mM HEPES pH 7.5, 10 mM MgCl2, 1 mM EDTA, 2 mM DTT, 0.01% Brij35, 0.5 mg/mL BSA). Luminescence was recorded with an Envision plate reader (PerkinElmer).
Dose titrations of inhibitors in 100% DMSO were combined with 0.36 nM CDK2/Cyclin E1 in reaction buffer. The mixtures were incubated for 60 minutes at 37° C. before the addition of ATP and Histone H1 substrate to initiate the kinase reaction. The final conditions were 0.18 nM CDK2/Cyclin E1, 100 μM ATP, and 1.5 μM Histone H1. The reactions were incubated at 37° C. for 90 minutes before being stopped with the addition of ADP-Glo reagent. This mixture was incubated at room temperature for 60 minutes before Kinase Detection Solution is added to generate luminescence. The stopped reactions were analyzed on an Envision plate reader. The conversion ratios were normalized to yield % activity, plotted against compound concentration, and fit to a four-parameter equation to determine the IC50 for each compound.
(In general: ADP-Glo first removes unused ATP, then detects ADP through luciferase.)

SMILES strings stand for the structures.

Consider `C[C@@H](OCC12CCC(CC1)OC2)[C@H](NC(=O)[C@@H]1CN(C(=O)c2cncs2)CC12CN(c1ncco1)C2)C(C)(C)O` [Compound I-3, (S)-N-((3S,4R)-4-(2-oxabicyclo[2.2.2]octan-4-ylmethoxy)-2-hydroxy-2-methylpentan-3-yl)-2-(oxazol-2-yl)-6-(thiazole-5-carbonyl)-2,6-diazaspiro[3.4]octane-8-carboxamide], for which the figures for the IC50 (with Kuramochi cells; at CDK2/Cyclin E1 [1]; in assay [2]) were more than 10 µM, more than 10 µM and more than 20 µM, respectively.
Turning to `C[C@@H](OCC1CCC(F)(F)CC1)[C@H](NC(=O)[C@@H]1CN(C(=O)c2cncs2)CC12CN(c1ncco1)C2)C(C)(C)O` [Compound I-4, (S)-N-((3S,4R)-4-((4,4-difluorocyclohexyl)methoxy)-2-hydroxy-2-methylpentan-3-yl)-2-(oxazol-2-yl)-6-(thiazole-5-carbonyl)-2,6-diazaspiro[3.4]octane-8-carboxamide], the IC50 with Kuramochi cells is more than 10 µM; on CDK2/Cyclin E1 [1], 1 to 10 µM; in assay [2] it was more than 20 µM.
In the same order, the values of `C[C@@H](OCC1CCCCC1)[C@H](NC(=O)[C@@H]1CN(c2cccc3ncsc23)CC12CN(C(=O)[C@H]1CC1(C)C)C2)C(=O)N1CCCCC1` [Compound I-7, (S)-6-(benzo[d]thiazol-7-yl)-N-((2S,3R)-3-(cyclohexylmethoxy)-1-oxo-1-(piperidin-1-yl)butan-2-yl)-2-((S)-2,2-dimethylcyclopropanecarbonyl)-2,6-diazaspiro[3.4]octane-8-carboxamide] are 5 to 10 µM, 0.1 to 1 µM and more than 20 µM.
For `C[C@@H](OCC1CCCCC1)[C@H](NC(=O)[C@@H]1CN(c2cccc3scnc23)CC12CN(C(=O)[C@H]1CC1(C)C)C2)C(=O)N1CCCCC1` [Compound I-8, 6-(benzo[d]thiazol-4-yl)-N-((2S,3R)-3-(cyclohexylmethoxy)-1-oxo-1-(piperidin-1-yl)butan-2-yl)-2-((S)-2,2-dimethylcyclopropanecarbonyl)-2,6-diazaspiro[3.4]octane-8-carboxamide], the figures for the IC50 (with Kuramochi cells; on CDK2/Cyclin E1 [1]; in assay [2]) were 5 to 10 µM, more than 10 µM and more than 20 µM, respectively.
Take `C[C@@H](OCC1CCCCC1)[C@H](NC(=O)[C@@H]1CN(c2nccc3[nH]ncc23)CC12CN(C(=O)[C@H]1CC1(C)C)C2)C(=O)N1CCCCC1` [Compound I-9, (S)-N-((2S,3R)-3-(cyclohexylmethoxy)-1-oxo-1-(piperidin-1-yl)butan-2-yl)-2-((S)-2,2-dimethylcyclopropanecarbonyl)-6-(1H-pyrazolo[4,3-c]pyridin-4-yl)-2,6-diazaspiro[3.4]octane-8-carboxamide]: the IC50 was more than 10 µM in the assay with Kuramochi cells, more than 10 µM at CDK2/Cyclin E1 [1] and more than 20 µM in assay [2].
As for `C[C@@H](OCC1CCCCC1)[C@H](NC(=O)[C@@H]1CN(c2nccc3scnc23)CC12CN(C(=O)[C@H]1CC1(C)C)C2)C(=O)N1CCCCC1` [Compound I-10, (S)-N-((2S,3R)-3-(cyclohexylmethoxy)-1-oxo-1-(piperidin-1-yl)butan-2-yl)-2-((S)-2,2-dimethylcyclopropanecarbonyl)-6-(thiazolo[4,5-c]pyridin-4-yl)-2,6-diazaspiro[3.4]octane-8-carboxamide], the figures for the IC50 (with Kuramochi cells; on CDK2/Cyclin E1 [1]; in assay [2]) were more than 10 µM, more than 10 µM and 5 to 20 µM, respectively.
`C[C@@H](OCC1CCCCC1)[C@H](NC(=O)[C@@H]1CN(c2cccc3[nH]ccc23)CC12CN(C(=O)[C@H]1CC1(C)C)C2)C(=O)N1CCCCC1` [Compound I-14, (S)-N-((2S,3R)-3-(cyclohexylmethoxy)-1-oxo-1-(piperidin-1-yl)butan-2-yl)-2-((S)-2,2-dimethylcyclopropanecarbonyl)-6-(1H-indol-4-yl)-2,6-diazaspiro[3.4]octane-8-carboxamide]: the IC50 is more than 10 µM in the assay on Kuramochi cells, more than 10 µM at CDK2/Cyclin E1 [1] and 0.5 to 5 µM in assay [2].
For `C[C@@H](OCC12CCC(CC1)OC2)[C@H](NC(=O)[C@@H]1CN(c2cc(F)cc3nccnc23)CC12CN(C(=O)C1(C(F)(F)F)CC1)C2)C(=O)N1CCC(c2nccs2)CC1` [Compound I-44, (S)-N-((2S,3R)-3-(2-oxabicyclo[2.2.2]octan-4-ylmethoxy)-1-oxo-1-(4-(thiazol-2-yl)piperidin-1-yl)butan-2-yl)-6-(7-fluoroquinoxalin-5-yl)-2-(1-(trifluoromethyl)cyclopropanecarbonyl)-2,6-diazaspiro[3.4]octane-8-carboxamide], the IC50 in assay [2] is more than 20 µM; at CDK2/Cyclin E1 [3] it was 0.5 to 5 µM.
In the same order, the values of `C[C@@H](OCC12CCC(CC1)OC2)[C@H](NC(=O)[C@@H]1CN(c2cccc3nc(O)cnc23)CC12CN(C(=O)C1(C(F)(F)F)CC1)C2)C(=O)N1CCC(c2nccs2)CC1` [Compound I-45, (S)-N-((2S,3R)-3-((2-oxabicyclo[2.2.2]octan-4-yl)methoxy)-1-oxo-1-(4-(thiazol-2-yl)piperidin-1-yl)butan-2-yl)-6-(2-hydroxyquinoxalin-5-yl)-2-(1-(trifluoromethyl)cyclopropane-1-carbonyl)-2,6-diazaspiro[3.4]octane-8-carboxamide] are more than 20 µM and more than 10 µM.

For the origin of these results see US20260014146A1, “CDK2 INHIBITORS AND METHODS OF USING THE SAME” (Cedilla Therapeutics, Inc., priority 2022, published 2026).
